# Laboratory results published in ChEMBL document CHEMBL2202954, “The effect of PLC-γ2 inhibitors on the growth of human tumour cells” (2012).
# How the values were obtained:
# Format in all cases: functional
# ACHN = experiment: Cytotoxicity against human ACHN cells assessed as cellular growth at 10 uM by SRB assay
# HCC 2998 = experiment: Cytotoxicity against human HCC2998 cells assessed as cellular growth at 10 uM by SRB assay
# SW-620 = experiment: Cytotoxicity against human SW620 cells assessed as cellular growth at 10 uM by SRB assay
# K562 = experiment: Cytotoxicity against human K562 cells assessed as cellular growth at 10 uM by SRB assay
# SNB-75 = experiment: Cytotoxicity against human SNB75 cells assessed as cellular growth at 10 uM by SRB assay
# CAKI-1 = experiment: Cytotoxicity against human Caki1 cells assessed as cellular growth at 10 uM by SRB assay
# SF-268 = experiment: Cytotoxicity against human SF268 cells assessed as cellular growth at 10 uM by SRB assay
# TK-10 = experiment: Cytotoxicity against human TK10 cells assessed as cellular growth at 10 uM by SRB assay
# CCRF-CEM = experiment: Cytotoxicity against human CCRF-CEM cells assessed as cellular growth at 10 uM by SRB assay
# NCI-H522 = experiment: Cytotoxicity against human NCI-H522 cells assessed as cellular growth at 10 uM by SRB assay
# MCF7 = experiment: Cytotoxicity against human MCF7 cells assessed as cellular growth at 10 uM by SRB assay
# [1] = Cytotoxicity against human NCI-ADR-RES cells assessed as cellular growth at 10 uM by SRB assay
# A549 = experiment: Cytotoxicity against human A549 cells assessed as cellular growth at 10 uM by SRB assay
# NCI-H23 = experiment: Cytotoxicity against human NCI-H23 cells assessed as cellular growth at 10 uM by SRB assay
# HOP-62 = experiment: Cytotoxicity against human HOP62 cells assessed as cellular growth at 10 uM by SRB assay
# OVCAR-3 = experiment: Cytotoxicity against human OVCAR3 cells assessed as cellular growth at 10 uM by SRB assay
# HCT-15 = experiment: Cytotoxicity against human HCT15 cells assessed as cellular growth at 10 uM by SRB assay
# MDA-MB-468 = experiment: Cytotoxicity against human MDA-MB-468 cells assessed as cellular growth at 10 uM by SRB assay
# NCI-H460 = experiment: Cytotoxicity against human NCI-H460 cells assessed as cellular growth at 10 uM by SRB assay
# NCI-H226 = experiment: Cytotoxicity against human NCI-H226 cells assessed as cellular growth at 10 uM by SRB assay
Structure (SMILES),Activity (ACHN),Activity (HCC 2998),Activity (SW-620),Activity (K562),Activity (SNB-75),Activity (CAKI-1),Activity (SF-268),Activity (TK-10),Activity (CCRF-CEM),Activity (NCI-H522),Activity (MCF7),Activity [1],Activity (A549),Activity (NCI-H23),Activity (HOP-62),Activity (OVCAR-3),Activity (HCT-15),Activity (MDA-MB-468),Activity (NCI-H460),Activity (NCI-H226)
Cc1ccc(C(=O)/C=C2/Nc3ccc(C)cc3OC2=O)cc1,104.27%,102.74%,120.18%,95.07%,72.48%,96.63%,110.95%,135.06%,77.12%,100.47%,96.32%,108.28%,105.68%,99.9%,115.04%,116.56%,110.94%,112.98%,117.71%,108.24%
Cc1cccc(-c2nc(-c3cccs3)no2)c1,99.9%,80.51%,90.68%,94.59%,85.75%,77.92%,112.75%,68.05%,91.12%,90.03%,39.04%,95.15%,100.01%,89.36%,79.48%,104%,83.75%,40.25%,94.9%,94.62%
Cc1ccc(Cl)cc1NC(=O)c1sc2nc3c(cc2c1N)C(=O)CCC3,55.94%,74.86%,36.54%,33.61%,48.01%,41.45%,74.86%,96.55%,49.18%,22.92%,35.55%,43.81%,53.86%,63.04%,60.95%,22.12%,45.91%,8.44%,28.15%,88.29%
Cc1cc(C)c(NC(=O)c2sc3nc4c(cc3c2N)C(=O)CCC4)c(C)c1,55.26%,30.95%,15.59%,19.79%,0%,-22.19%,38.6%,44.75%,22.12%,-14.71%,16.79%,-8.04%,23.05%,33.04%,36.92%,13.17%,31.78%,-27.16%,6.43%,77.05%
O=C(Nc1ccc2oc(=O)ccc2c1)c1ccc(-c2ccc(Br)cc2)o1,121.66%,112.96%,107.9%,95.77%,104.41%,183.36%,106.9%,102.05%,103.74%,105.32%,98.67%,101.15%,100.63%,103.68%,106.69%,125.42%,108.33%,122.28%,100.9%,112.35%
c1ccc(-c2nc(-c3cccs3)no2)cc1,102.77%,117.01%,101.1%,100.51%,105.81%,100.18%,105.23%,97.25%,97.84%,96.9%,52.58%,116.69%,106.51%,93.94%,98.37%,105.28%,94.44%,83.74%,102.91%,91.26%
O=C(Nc1ccc(S(=O)(=O)Nc2nccs2)cc1)c1cccs1,116.25%,108.36%,111.55%,104.24%,87.94%,99.02%,114.27%,104.94%,89.52%,93.79%,103.71%,120.26%,96.04%,108.72%,114.96%,116.67%,104.67%,102.57%,123.68%,108.77%
O=C(NCc1ccc(Cl)cc1)c1[nH]c2ccccc2c1Cl,104.7%,104.03%,98.38%,102.78%,94.33%,91.63%,105.1%,163.4%,93.68%,103.35%,128.42%,95.94%,94.27%,95.58%,101.61%,97.31%,103.64%,106.81%,99.81%,89.64%
Cc1ccccc1NC(=O)c1sc2nc3c(cc2c1N)C(=O)CCC3,49.27%,67%,25.37%,22.15%,13.12%,55.35%,65.36%,81.15%,30.28%,12.53%,21.69%,22.58%,37.59%,50.58%,38.2%,4.33%,32.76%,-4.56%,15.33%,65.79%
COc1cccc(C(=O)Nc2nc3ccc(Cl)cc3s2)c1,91.34%,93.56%,88.38%,49%,109.63%,68.42%,106.92%,88.7%,81.01%,78.29%,85.29%,75.07%,74.01%,81.36%,104.17%,100.09%,71.29%,61.26%,87.74%,93.47%
O=C(NCCc1ccccc1)c1[nH]c2ccccc2c1Cl,90.71%,101.44%,92.61%,74.92%,79.43%,78.12%,92.71%,154.81%,86.13%,96.12%,83.19%,87.28%,96.24%,84.26%,86.43%,72.81%,86.01%,64.9%,89.75%,73.27%
Nc1c(C(=O)Nc2ccccc2)sc2nc3c(cc12)C(=O)CCC3,49.71%,21.89%,27.25%,17.06%,12.41%,54.68%,53.38%,63.62%,16.76%,-33.85%,19.61%,-6.39%,19.69%,39.48%,39.88%,-19.35%,27.18%,4.62%,12.88%,68%
O=S(=O)(Oc1ccc(-c2cnc3ccccc3n2)cc1)c1ccccc1,103.61%,99.83%,99.76%,81.89%,108.13%,100.14%,98.77%,82.7%,85.64%,78.75%,94.53%,96.02%,95.36%,96.29%,106.15%,112.06%,98.25%,84.46%,110.82%,94.97%
Nc1c(C(=O)Nc2ccc(Cl)c(Cl)c2)sc2nc(-c3cccs3)ccc12,99.6%,98.35%,105.33%,86.57%,86.26%,95.41%,85.77%,87.49%,82.99%,81.53%,87.77%,75.02%,54.62%,68.82%,100.28%,100.29%,92.1%,19.37%,103.53%,96.17%
O=c1/c(=C/c2ccc(Cl)cc2Cl)sc2nc(-c3ccccc3)nn12,107.07%,117.6%,107.15%,98.67%,116.38%,116.76%,107.16%,106%,95.93%,98.76%,103.07%,112.24%,107.72%,101.62%,120.5%,116%,100.58%,112.09%,106.83%,98.92%
Nc1c(C(=O)Nc2ccccc2F)sc2nc3c(cc12)C(=O)CCC3,65.41%,43.8%,30%,26.33%,13.66%,4.36%,54.87%,59.66%,26.78%,-15.17%,22.91%,-4.39%,22.02%,42.84%,42.7%,16.76%,40.21%,-15.24%,11.41%,75.1%
Cc1c(OCC(=O)c2ccccc2)ccc2c1oc(=O)c1ccccc12,114.47%,117.13%,95.18%,100.66%,122.93%,99.74%,100.71%,110%,95.27%,110.46%,102.82%,100.54%,93.47%,109.71%,105.3%,102.65%,107.13%,62.01%,100.87%,99.25%
